Experimental data from patent US20240058283A1, “THE MODE OF ACTION OF N-MeDCPA ON TRPC CHANNELS” (West Virginia University Board of Governors on Behalf of …, priority 2022, published 2024).
Like-named read-outs stand apart in the source and are kept apart here.

How the values were obtained:
TRPC7 [1] = molecular target: T1, TRPC7 (Homo sapiens, UniProt Q9HCX4); assay: Carbachol (Cch)-induced Sr2+ entry in Fura2-loaded HEK293 cells overexpressing TRPC7; type: cell-based; settings: versus DAG-mediated activation, FIG. 2D, E
T1 construct: expressed in transfected cells; host or cells: HEK293 (transient transfection)
T1 sequence (Q9HCX4 1-862): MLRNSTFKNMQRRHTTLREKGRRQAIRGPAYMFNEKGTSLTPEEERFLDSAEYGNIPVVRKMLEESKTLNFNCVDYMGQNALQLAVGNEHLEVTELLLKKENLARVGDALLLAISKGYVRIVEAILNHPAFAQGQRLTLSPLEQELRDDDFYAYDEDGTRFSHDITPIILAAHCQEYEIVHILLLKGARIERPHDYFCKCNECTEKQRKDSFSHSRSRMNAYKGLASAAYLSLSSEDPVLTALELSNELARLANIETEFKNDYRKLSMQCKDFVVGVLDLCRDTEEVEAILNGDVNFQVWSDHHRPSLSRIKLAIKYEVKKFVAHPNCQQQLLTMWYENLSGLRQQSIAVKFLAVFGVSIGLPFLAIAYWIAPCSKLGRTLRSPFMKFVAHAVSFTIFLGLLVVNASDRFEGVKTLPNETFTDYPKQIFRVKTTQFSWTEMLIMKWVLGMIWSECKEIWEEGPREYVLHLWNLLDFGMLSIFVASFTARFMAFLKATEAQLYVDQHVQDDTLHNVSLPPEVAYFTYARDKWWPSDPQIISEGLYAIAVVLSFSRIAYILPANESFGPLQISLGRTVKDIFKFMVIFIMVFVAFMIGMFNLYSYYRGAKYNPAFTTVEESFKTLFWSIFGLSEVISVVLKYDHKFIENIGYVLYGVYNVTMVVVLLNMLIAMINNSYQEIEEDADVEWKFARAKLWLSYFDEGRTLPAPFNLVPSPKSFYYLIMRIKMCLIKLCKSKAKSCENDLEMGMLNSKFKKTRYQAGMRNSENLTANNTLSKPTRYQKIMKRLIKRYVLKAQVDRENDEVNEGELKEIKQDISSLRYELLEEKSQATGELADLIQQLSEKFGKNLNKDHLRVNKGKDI
Source text: Inhibition of GPCR-mediated TRPC activation. Since TRPC4 and TRPC5 are not activated by DAG, we utilized carbachol (Cch)-induced Sr^2+ entry to determine their sensitivity to ELP-004. Since Cch drives ER Ca^2+ release, Cch-induced Ca^2+ entry includes both store-operated and TRPC-mediated components. To specifically measure ion entry through TRPC channels, we took advantage of the lack of ion selectivity of TRPC channel and substituted Sr^2+ for Ca^2+ as previously described^7. As expected, Cch stimulated rapid ER Ca^2+ release immediately upon addition in both TRPC4- and TRPC5-expressing cells (FIG. 2A,B). The subsequent addition of Sr^2+ (3 mM) lead to a significant increase in Fura ratio with a substantially larger response in TRPC5-expressing than TRPC4-expressing cells. […] Therefore, we assessed inhibition of TRPC7 by ELP-004 using the Cch Sr^2+ assay (FIG. 2D, E). […]
(§1) TRPC activity assay—Cells grown on glass coverslips were incubated in a cation-safe buffer (107 mM NaCl, 7.2 mM KCl, 1.2 mM MgCl2, 11.5 mM Glucose, 20 mM HEPES-NaOH, 1 mM CaCl2), pH 7.2) and loaded with Fura2-acetoxymethylester (Fura2-AM; 2 μM) for 30 min at 24° C. as previously described^10,11. […] Ca^2+/Sr^2+ measurements were taken using a Leica DMI 6000B fluorescence microscope controlled by Slidebook software (Intelligent Imaging Innovations, Denver, CO). […]

TRPC7 [2] = molecular target: T1, TRPC7; assay: OAG-induced Ca2+ entry in Fura2-loaded HEK293 cells overexpressing TRPC7; type: cell-based
Method: Inhibition of DAG-mediated TRPC activation. To determine if ELP-004 (N-MeDCPA) inhibits DAG-induced TRPC activation, HEK293 cells expressing TRPC3, TRPC6 or TRPC7 were loaded with Fura2 and incubated with ELP-004 (0 to 1 mM) for 10 minutes prior to challenging with 1-Oleoyl-2-acetyl-sn-glycerol (OAG), a membrane permeable form of diacylglycerol.
Cell Culture—HEK293 cells were grown in DMEM with 4.5 g/L glucose supplemented with 10% FBS and 1% Gentamycin (Full DMEM media; Thermo-Fisher Scientific, Waltham, MA) at 37° C. and 5% CO2. […]
as §1, with “CO). Fluorescence emission at 505 nm was monitored in response to excitation at alternating 340 nm and 380 nm wavelengths at a frequency of 0.67 Hz; intracellular Ca^2+ measurements are shown at 340/380 nm ratios obtained from groups of 35-45 single cells.” for “CO).”

With CCC(=O)N(C)c1ccc(Cl)c(Cl)c1 [ELP-004, N-(3,4-dichlorophenyl)-N-methylpropanamide] the “increase in sensitivity to ELP-004 in the Cch Sr2+ assay” value (TRPC7 [1]) was 3 order of magnitude, the IC50 (TRPC7 [2]; FIG. 5, TRPC O/E cells, OAG, Ca2+ present, read-out: TRPC7 IC50) was 9 nM and the IC50 (TRPC7 [2]; HEK293 expressing TRPC7, ELP-004 0 to 1 mM for 10 minutes before OAG, FIG. 1D, read-out: IC50, inhibition of OAG-induced Ca2+ entry) was 1000 to 2000 nM.
